Results: ChEMBL document CHEMBL1201861, “Genomics of Drug Sensitity in Cancer screening data, Wellcome Trust Sanger Institute”

Tests used:
NCI-H1793 = assay: cells; type: functional, cell-based, Homo sapiens; conditions: Homo sapiens, NCI-H1793
Description: SANGER: Inhibition of human NCI-H1793 cell growth in a cell viability assay.

RD = assay: cells; type: functional, cell-based, Homo sapiens; conditions: Homo sapiens, RD
Description: SANGER: Inhibition of human RD cell growth in a cell viability assay.

SIG-M5 = assay: cells; type: functional, cell-based, Homo sapiens; conditions: Homo sapiens, SIG-M5
Description: SANGER: Inhibition of human SIG-M5 cell growth in a cell viability assay.

LK-2 = assay: cells; type: functional, cell-based, Homo sapiens; conditions: Homo sapiens, LK-2
Description: SANGER: Inhibition of human LK-2 cell growth in a cell viability assay.

LU-165 = assay: cells; type: functional, cell-based, Homo sapiens; conditions: Homo sapiens, LU-165
Description: SANGER: Inhibition of human LU-165 cell growth in a cell viability assay.

MKN-28 = assay: cells; type: functional, cell-based, Homo sapiens; conditions: Homo sapiens, MKN-28
Description: SANGER: Inhibition of human MKN28 cell growth in a cell viability assay.

DBTRG-05MG = assay: cells; type: functional, cell-based, Homo sapiens; conditions: Homo sapiens, DBTRG-05MG
Description: SANGER: Inhibition of human DBTRG-05MG cell growth in a cell viability assay.

NCI-H2030 = assay: cells; type: functional, cell-based, Homo sapiens; conditions: Homo sapiens, NCI-H2030
Description: SANGER: Inhibition of human NCI-H2030 cell growth in a cell viability assay.

A673 = assay: cells; type: functional, cell-based, Homo sapiens; conditions: Homo sapiens, A673
Description: SANGER: Inhibition of human A673 cell growth in a cell viability assay.

AU565 = assay: cells; type: functional, cell-based, Homo sapiens; conditions: Homo sapiens, AU565
Description: SANGER: Inhibition of human AU565 cell growth in a cell viability assay.

NCI-H345 = assay: cells; type: functional, cell-based, Homo sapiens; conditions: Homo sapiens, NCI-H345
Description: SANGER: Inhibition of human NCI-H345 cell growth in a cell viability assay.

CAKI-1 = assay: cells; type: functional, cell-based, Homo sapiens; conditions: Homo sapiens, CAKI-1
Description: SANGER: Inhibition of human CAKI-1 cell growth in a cell viability assay.

NCI-H460 = assay: cells; type: functional, cell-based, Homo sapiens; conditions: Homo sapiens, NCI-H460
Description: SANGER: Inhibition of human NCI-H460 cell growth in a cell viability assay.

GDM-1 = assay: cells; type: functional, cell-based, Homo sapiens; conditions: Homo sapiens, GDM-1
Description: SANGER: Inhibition of human GDM-1 cell growth in a cell viability assay.

KYSE-70 cell line = assay: cells; type: functional, cell-based, Homo sapiens; conditions: Homo sapiens, KYSE-70
Description: SANGER: Inhibition of human KYSE-70 cell growth in a cell viability assay.

NCI-H650 = assay: cells; type: functional, cell-based, Homo sapiens; conditions: Homo sapiens, NCI-H650
Description: SANGER: Inhibition of human NCI-H650 cell growth in a cell viability assay.

C3A = assay: cells; type: functional, cell-based, Homo sapiens; conditions: Homo sapiens, C3A
Description: SANGER: Inhibition of human C3A cell growth in a cell viability assay.

SW1088 = assay: cells; type: functional, cell-based, Homo sapiens; conditions: Homo sapiens, SW1088
Description: SANGER: Inhibition of human SW1088 cell growth in a cell viability assay.

SCC-25 = assay: cells; type: functional, cell-based, Homo sapiens; conditions: Homo sapiens, SCC-25
Description: SANGER: Inhibition of human SCC-25 cell growth in a cell viability assay.

U2OS = assay: cells; type: functional, cell-based, Homo sapiens, U-2-OS; conditions: Homo sapiens, U2OS
Description: SANGER: Inhibition of human U-2-OS cell growth in a cell viability assay.

Daoy = assay: cells; type: functional, cell-based, Homo sapiens; conditions: Homo sapiens, Daoy
Description: SANGER: Inhibition of human Daoy cell growth in a cell viability assay.

NCI-H524 = assay: cells; type: functional, cell-based, Homo sapiens; conditions: Homo sapiens, NCI-H524
Description: SANGER: Inhibition of human NCI-H524 cell growth in a cell viability assay.

SCLC-21H = assay: cells; type: functional, cell-based, Homo sapiens; conditions: Homo sapiens, SCLC-21H
Description: SANGER: Inhibition of human SCLC-21H cell growth in a cell viability assay.

SW13 = assay: cells; type: functional, cell-based, Homo sapiens; conditions: Homo sapiens, SW13
Description: SANGER: Inhibition of human SW13 cell growth in a cell viability assay.

SK-N-AS = assay: cells; type: functional, cell-based, Homo sapiens; conditions: Homo sapiens, SK-N-AS
Description: SANGER: Inhibition of human SK-N-AS cell growth in a cell viability assay.

TE-15 = assay: cells; type: functional, cell-based, Homo sapiens; conditions: Homo sapiens, TE-15
Description: SANGER: Inhibition of human TE-15 cell growth in a cell viability assay.

NCI-H187 = assay: cells; type: functional, cell-based, Homo sapiens; conditions: Homo sapiens, NCI-H187
Description: SANGER: Inhibition of human NCI-H187 cell growth in a cell viability assay.

SKG-IIIa = assay: cells; type: functional, cell-based, Homo sapiens; conditions: Homo sapiens, SKG-IIIa
Description: SANGER: Inhibition of human SKG-IIIa cell growth in a cell viability assay.

SW626 = assay: cells; type: functional, cell-based, Homo sapiens; conditions: Homo sapiens, SW626
Description: SANGER: Inhibition of human SW626 cell growth in a cell viability assay.

CAL-12T = assay: cells; type: functional, cell-based, Homo sapiens; conditions: Homo sapiens, CAL-12T
Description: SANGER: Inhibition of human CAL-12T cell growth in a cell viability assay.

L-540 = assay: cells; type: functional, cell-based, Homo sapiens; conditions: Homo sapiens, L-540
Description: SANGER: Inhibition of human L-540 cell growth in a cell viability assay.

T-24 = assay: cells; type: functional, cell-based, Homo sapiens; conditions: Homo sapiens, T-24
Description: SANGER: Inhibition of human T-24 cell growth in a cell viability assay.

OVCAR-5 = assay: cells; type: functional, cell-based, Homo sapiens; conditions: Homo sapiens, OVCAR-5
Description: SANGER: Inhibition of human OVCAR-5 cell growth in a cell viability assay.

LU-99A = assay: cells; type: functional, cell-based, Homo sapiens; conditions: Homo sapiens, LU-99A
Description: SANGER: Inhibition of human LU-99A cell growth in a cell viability assay.

BT-20 = assay: cells; type: functional, cell-based, Homo sapiens; conditions: Homo sapiens, BT-20
Description: SANGER: Inhibition of human BT-20 cell growth in a cell viability assay.

BC1 cell line = assay: SANGER: Inhibition of human BC-1 cell growth in a cell viability assay.; type: functional, cell-based; conditions: Homo sapiens, BC1
ARH-77 = assay: cells; type: functional, cell-based, Homo sapiens; conditions: Homo sapiens, ARH-77
Description: SANGER: Inhibition of human ARH-77 cell growth in a cell viability assay.

CMK = assay: cells; type: functional, cell-based, Homo sapiens; conditions: Homo sapiens, CMK
Description: SANGER: Inhibition of human CMK cell growth in a cell viability assay.

GCT = assay: cells; type: functional, cell-based, Homo sapiens; conditions: Homo sapiens, GCT
Description: SANGER: Inhibition of human GCT cell growth in a cell viability assay.

SJRH30 = assay: cells; type: functional, cell-based, Homo sapiens; conditions: Homo sapiens, SJRH30
Description: SANGER: Inhibition of human SJRH30 cell growth in a cell viability assay.

BC-3 = assay: cells; type: functional, cell-based, Homo sapiens; conditions: Homo sapiens, BC-3
Description: SANGER: Inhibition of human BC-3 cell growth in a cell viability assay.

M059J = assay: cells; type: functional, cell-based, Homo sapiens; conditions: Homo sapiens, M059J
Description: SANGER: Inhibition of human M059J cell growth in a cell viability assay.

SW780 = assay: cells; type: functional, cell-based, Homo sapiens; conditions: Homo sapiens, SW780
Description: SANGER: Inhibition of human SW780 cell growth in a cell viability assay.

PANC-03-27 = assay: cells; type: functional, cell-based, Homo sapiens; conditions: Homo sapiens, PANC-03-27
Description: SANGER: Inhibition of human PANC-03-27 cell growth in a cell viability assay.

U-251 = assay: cells; type: functional, cell-based, Homo sapiens; conditions: Homo sapiens, U-251
Description: SANGER: Inhibition of human U251 cell growth in a cell viability assay.

RPMI-6666 = assay: cells; type: functional, cell-based, Homo sapiens; conditions: Homo sapiens, RPMI-6666
Description: SANGER: Inhibition of human RPMI-6666 cell growth in a cell viability assay.

## Nc1ccn([C@@H]2O[C@H](CO)[C@@H](O)C2(F)F)c(=O)n1 [GEMCITABINE]
NCI-H1793
  IC50: 224 nM
RD
  IC50: 130 nM
SIG-M5
  IC50: < 4 nM
LK-2
  IC50: > 1020 nM
LU-165
  IC50: > 1020 nM
MKN-28
  IC50: > 1020 nM
DBTRG-05MG
  IC50: 122 nM
NCI-H2030
  IC50: 30.4 nM
A673
  IC50: 34.2 nM
AU565
  IC50: 21.8 nM
NCI-H345
  IC50: > 1020 nM
CAKI-1
  IC50: > 1020 nM
NCI-H460
  IC50: 13.5 nM
GDM-1
  IC50: 62.5 nM
KYSE-70 cell line
  IC50: 300 nM
NCI-H650
  IC50: 566 nM
C3A
  IC50: 8.84 nM
SW1088
  IC50: > 1020 nM
SCC-25
  IC50: 289 nM
U2OS
  IC50: > 1020 nM
Daoy
  IC50: < 4 nM
NCI-H524
  IC50: > 1020 nM
SCLC-21H
  IC50: > 1020 nM
SW13
  IC50: 330 nM
SK-N-AS
  IC50: > 1020 nM
TE-15
  IC50: < 4 nM
NCI-H187
  IC50: > 1020 nM
SKG-IIIa
  IC50: 810 nM
SW626
  IC50: 4.46 nM
CAL-12T
  IC50: 1.08 nM
L-540
  IC50: 1.6 nM
T-24
  IC50: > 1020 nM
OVCAR-5
  IC50: 306 nM
LU-99A
  IC50: > 1020 nM
BT-20
  IC50: 182 nM
BC1 cell line
  IC50: 33.8 nM
ARH-77
  IC50: < 4 nM
CMK
  IC50: < 4 nM
GCT
  IC50: 405 nM
SJRH30
  IC50: 106 nM
BC-3
  IC50: 221 nM
M059J
  IC50: 21.1 nM
SW780
  IC50: > 1020 nM
PANC-03-27
  IC50: 3.51 nM
U-251
  IC50: 22.3 nM
RPMI-6666
  IC50: < 4 nM

## Oc1ccc2ccccc2c1SSc1c(O)ccc2ccccc12
NCI-H1793
  IC50: > 32000 nM
RD
  IC50: > 32000 nM
SIG-M5
  IC50: 2100 nM
LK-2
  IC50: 29200 nM
LU-165
  IC50: > 32000 nM
MKN-28
  IC50: 17300 nM
DBTRG-05MG
  IC50: > 32000 nM
NCI-H2030
  IC50: > 32000 nM
A673
  IC50: > 32000 nM
AU565
  IC50: 31200 nM
NCI-H345
  IC50: > 32000 nM
CAKI-1
  IC50: > 32000 nM
NCI-H460
  IC50: > 32000 nM
GDM-1
  IC50: > 32000 nM
KYSE-70 cell line
  IC50: > 32000 nM
NCI-H650
  IC50: > 32000 nM
C3A
  IC50: 30300 nM
SW1088
  IC50: > 32000 nM
SCC-25
  IC50: > 32000 nM
U2OS
  IC50: > 32000 nM
Daoy
  IC50: 3250 nM
NCI-H524
  IC50: > 32000 nM
SCLC-21H
  IC50: > 32000 nM
SW13
  IC50: > 32000 nM
SK-N-AS
  IC50: > 32000 nM
TE-15
  IC50: > 32000 nM
NCI-H187
  IC50: > 32000 nM
SKG-IIIa
  IC50: > 32000 nM
SW626
  IC50: > 32000 nM
CAL-12T
  IC50: 5640 nM
L-540
  IC50: > 32000 nM
T-24
  IC50: > 32000 nM
OVCAR-5
  IC50: > 32000 nM
LU-99A
  IC50: > 32000 nM
BT-20
  IC50: > 32000 nM
BC1 cell line
  IC50: > 32000 nM
ARH-77
  IC50: > 32000 nM
CMK
  IC50: 3150 nM
GCT
  IC50: > 32000 nM
SJRH30
  IC50: > 32000 nM
BC-3
  IC50: > 32000 nM
M059J
  IC50: > 32000 nM
SW780
  IC50: > 32000 nM
PANC-03-27
  IC50: > 32000 nM
U-251
  IC50: > 32000 nM
RPMI-6666
  IC50: > 32000 nM
